In patent publication US4824843A, “Substituted amide inhibitors of cholesterol absorption” (Warner-Lambert Company, priority 1987, dated 1989):
Counter-ions that a name gives are not always drawn.

Each compound was assayed against T1, acyl-CoA: cholesterol acyltransferase (ACAT) (Oryctolagus cuniculus, UniProt G1SFD9) (assay: In vitro inhibition of cholesterol esterification by ACAT (cholesteryl oleate formation), rabbit intestinal microsomal fraction). Details: endogenous cholesterol of rabbit intestinal microsomal fraction and exogenous 14C-oleoyl-CoA; read-out: IC50 (concentration of test compound required to inhibit cholesteryl oleate formation to 50% of control).
T1 construct: rabbit intestinal microsomal fraction; from tissue; host or cells: rabbit intestinal microsomal fraction
T1 sequence (G1SFD9 1-524): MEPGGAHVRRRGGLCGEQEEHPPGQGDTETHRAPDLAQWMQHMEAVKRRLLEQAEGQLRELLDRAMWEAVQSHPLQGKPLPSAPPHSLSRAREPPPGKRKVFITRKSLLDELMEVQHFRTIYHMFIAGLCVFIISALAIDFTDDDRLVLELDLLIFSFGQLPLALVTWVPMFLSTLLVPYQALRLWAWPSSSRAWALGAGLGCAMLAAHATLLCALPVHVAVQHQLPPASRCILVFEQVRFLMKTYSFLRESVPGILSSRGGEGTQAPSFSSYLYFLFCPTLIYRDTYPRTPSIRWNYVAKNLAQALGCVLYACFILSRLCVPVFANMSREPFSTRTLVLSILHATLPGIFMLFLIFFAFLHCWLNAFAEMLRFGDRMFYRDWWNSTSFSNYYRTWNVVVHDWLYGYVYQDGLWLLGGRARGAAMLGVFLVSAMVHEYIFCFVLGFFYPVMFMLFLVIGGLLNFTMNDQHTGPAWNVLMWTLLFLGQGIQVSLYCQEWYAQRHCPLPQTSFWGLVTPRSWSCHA
Type: biochemical
Experimental: The compounds of the present invention were tested for their ability to inhibit the esterification of cholesterol by the enzyme acyl-CoA: cholesterol acyltransferase (ACAT). The data in the table below is expressed as IC50 values, i.e. the concentration of test compound required to inhibit cholesteryl oleate formation to 50% of control.
The in vitro test employed is more fully described in Field, F. J. and Salome, R. G., Biochemica et Biophysica Acta, 712, pp. 557-570 (1982). The assay evaluates the ability of a test compound to inhibit the esterification of cholesterol using endogenous cholesterol of a rabbit intestinal microsomal fraction and exogenous ^14 C-oleoyl-CoA as reactants.

Row | SMILES | IC50
1 | COc1ccc(CC2=NC(C)(C)CO2)cc1NC(=O)C(C)(C)CCCOc1cc(C)ccc1C [Example 3, N-[5-[(4,5-Dihydro-4,4-dimethyl-2-oxazolyl)methyl]-2-methoxyphenyl]-5-(2,5-dimethylphenoxy)-2,2-dimethylpentanamide] | 5.5 µM
2 | Cc1ccc(C)c(OCCCC(C)(C)C(=O)Nc2cc(C3=NC(C)(C)CO3)ccc2C)c1 [Example 1b, N-[5-(4,5-Dihydro-4,4-dimethyl-2-oxazolyl)-2-methylphenyl]-5-(2,5-dimethylphenoxy)-2,2-dimethylpentanamide] | 5.5 µM
3 | Cc1ccc(C)c(OCCCC(C)(C)C(=O)Nc2cccc(OCC3=NC(C)(C)CO3)c2)c1 [Example 3a, N-[3-[(4,5-Dihydro-4,4-dimethyl-2-oxazolyl)methoxy]phenyl]-5-(2,5-dimethylphenoxy)-2,2-dimethylpentanamide] | 9.2 µM
4 | Cc1ccc(C)c(OCCCC(C)(C)C(=O)Nc2cccc(-c3ncco3)c2)c1 [Example 4h, 5-(2,5-Dimethylphenoxy)-2,2-dimethyl-N-[3-(2-oxazolyl)phenyl]-pentanamide] | 23 µM
5 | Cc1ccc(C)c(OCCCC(C)(C)C(=O)Nc2cccc(C3=NC(C)(C)CO3)c2)c1 [Example 1a, N-[3-(4,5-Dihydro-4,4-dimethyl-2-oxazolyl)phenyl]-5-(2,5-dimethylphenoxy)-2,2-dimethylpentanamide] | 22 µM
6 | COC(=N)c1cccc(NC(=O)C(C)(C)CCCOc2cc(C)ccc2C)c1 [Example 4g, 5-(2,5-Dimethylphenoxy)-N-[3-(iminomethoxymethyl)phenyl]-2,2-dimethylpentanamide monohydrochloride] | 13 µM
7 | COc1ccc(NC(=O)C(C)(C)CCCOc2cc(C)ccc2C)cc1C1=NC(C)(C)CO1 [Example 4d, N-[3-(4,5-Dihydro-4,4-dimethyl-2-oxazolyl)-4-methoxyphenyl]-5-(2,5-dimethylphenoxy)-2,2-dimethylpentanamide] | 19 µM
8 | Cc1ccc(C)c(OCCCC(C)(C)C(=O)Nc2ccc(C)c(CC3=NC(C)(C)CO3)c2)c1 [Example 1d, N-[3-[(4,5-Dihydro-4,4-dimethyl-2-oxazolyl)methyl]-4-methylphenyl]-5-(2,5-dimethylphenoxy)-2,2-dimethylpentanamide] | 1 µM
9 | COc1ccc(C2=NC(C)(C)CO2)cc1NC(=O)C(C)(C)CCCOc1cc(C)ccc1C [Example 4b, N-[5-(4,5-Dihydro-4,4-dimethyl-2-oxazolyl)-2-methoxyphenyl]-5-(2,5-dimethylphenoxy)-2,2-dimethylpentanamide] | 9 µM
10 | Cc1ccc(C)c(OCCCC(C)(C)C(=O)Nc2cccc(C3=NCCCO3)c2)c1 [Example 4, N-[3-(5,6-Dihydro-4H-1,3-oxazin-2-yl)phenyl]-5-(2,5-dimethylphenoxy)-2,2-dimethylpentanamide] | 20 µM
11 | COc1ccc(/C=C/C2=NC(C)(C)CO2)cc1NC(=O)C(C)(C)CCCOc1cc(C)ccc1C [Example 2b, (E)-N-[5-[2-(4,5-Dihydro-4,4-dimethyl-2-oxazolyl)ethenyl]-2-methoxyphenyl]-5-(2,5-dimethylphenoxy)-2,2-dimethylpentanamide] | 8 µM
12 | COc1ccc(NC(=O)C(C)(C)CCCOc2cc(C)ccc2C)cc1CCC1=NC(C)(C)CO1 [Example 2, N-[3-[2-(4,5-Dihydro-4,4-dimethyl-2-oxazolyl)ethyl]-4-methoxyphenyl]-5-(2,5-dimethylphenoxy)-2,2-dimethylpentanamide] | 3.7 µM
13 | Cc1ccc(C)c(OCCCC(C)(C)C(=O)Nc2cccc(-c3nnc(C)o3)c2)c1 [Example 5, 5-(2,5-dimethylphenoxy)-2,2-dimethyl-N-[3-(5-methyl-1,3,4-oxadiazol-2-yl)phenyl]pentanamide] | 21 µM
14 | COc1ccc(C2=NCCCO2)cc1NC(=O)C(C)(C)CCCOc1cc(C)ccc1C [Example 4f, N-[5-(5,6-Dihydro-4H-1,3-oxazin-2-yl)-2-methoxyphenyl]-5-(2,5-dimethylphenoxy)-2,2-dimethylpentanamide] | 18 µM
15 | Cc1ccc(C)c(OCCCC(C)(C)C(=O)Nc2cccc(C=CC3=NC(C)(C)CO3)c2)c1 [Example 2a, N-[3-[2-(4,5-Dihydro-4,4-dimethyl-2-oxazolyl)ethenyl]phenyl]-5-(2,5-dimethylphenoxy)-2,2-dimethylpentanamide] | 9.4 µM
16 | Cc1ccc(C)c(OCCCC(C)(C)C(=O)Nc2cccc(C3=NCCO3)c2C)c1 [Example 1c, N-[3-(4,5-Dihydro-2-oxazolyl)-2-methylphenyl]-5-(2,5-dimethylphenoxy)-2,2-dimethylpentanamide] | 10 µM
17 | Cc1ccc(C)c(OCCCC(C)(C)C(=O)Nc2cccc(C3=NC(C)(C)CO3)c2C)c1 [Example 1, N-[3-(4,5-Dihydro-4,4-dimethyl-2-oxazolyl)-2-methylphenyl]-5-(2,5-dimethylphenoxy)-2,2-dimethylpentanamide] | 24 µM
18 | COc1cc(OC)c(C2=NC(C)(C)CO2)cc1NC(=O)C(C)(C)CCCOc1cc(C)ccc1C [Example 4e, N-[5-(4,5-Dihydro-4,4-dimethyl-2-oxazolyl)-2,4-dimethoxyphenyl]-5-(2,5-dimethylphenoxy)-2,2-dimethylpentanamide] | 9 µM
19 | Cc1ccc(C)c(OCCCC(C)(C)C(=O)Nc2cc(CC3=NC(C)(C)CO3)ccc2C)c1 [Example 3b, N-[5-[(4,5-Dihydro-4,4-dimethyl-2-oxazolyl)methyl]-2-methylphenyl]-5-(2,5-dimethylphenoxy)-2,2-dimethylpentanamide] | 0.8 µM
